The numbers were not newly measured in patent US10596159B2, “Method and composition for treating cachexia and eating disorders” (India Globalization Capital, Inc., priority 2015, dated 2020), which cites them from elsewhere.

Where two headings read alike, the source gives them in different places.

The conditions of data set [1]: HIV-positive and cancer patients; Gorter, 1999.
Setting [2] is: advanced cancer patients, Ronga, et al. 2014.

On to `CCCCCc1cc(O)c2c(c1)OC(C)(C)[C@@H]1CCC(C)=C[C@@H]21` [THC, Delta-9-tetrahydrocannabinol], for which, in data set [1], the appetite entry is recorded as “stimulation of appetite” and the body weight result was “increase of body weight”.
With `CN1CCC(=C2c3ccccc3C=Cc3ccccc32)CC1.Cl` [cyproheptadine, 4-(5H-dibenzo [a,d]cyclohepten-5-ylidene)-1-methylpiperidine hydrochloride], under “Suzuki, et al. 2013”, the appetite stimulation entry is “effective in stimulating appetite” and the “effect on weight loss” value was “only slight effects on weight loss”. Besides, under setting [2], the appetite stimulation result is given as “only mildly stimulated appetite” and the “effect on progressive weight loss” value was “did not prevent progressive weight loss”.
